Laboratory results from US20210137964A1, “GLYCAN COMPOSITIONS AND METHODS OF USE” (KALEIDO BIOSCIENCES, INC., priority 2016, published 2021).

Legend:
Format in all cases: cell-based
Details in all cases: ex vivo 1% w/v fecal slurry from 12 subjects, glycan 0.5% w/v, 37° C., 18 hours, anaerobic
[1] = system: Enterococcaceae/Enterococcus and/or Bifidobacteriaceae/Bifidobacterium; assay: Ex vivo fecal slurry assay, 16S rRNA sequencing (Example 15)
Source text: (§1) An ex vivo assay was designed to determine if glycans can be used to modulate a complex community of microorganisms and if the glycans produced consistent effects across communities obtained from multiple (twelve) subjects. Fecal samples and slurries were handled in an anaerobic chamber (AS-580, Anaerobe Systems) featuring a palladium catalyst. Glycans ara100, gal100, glu60man40, glu100, glu50gal50, gal33man33ara33, man75gal25, glu33gal33man34, glu33gal33Ara33, man100, man52glu29gal19 and commercially available glycans lactulose (Alfa Aesar) and FOS (Nutraflora FOS; NOW Foods, Bloomingdale Ill.) were included in the study. The fecal sample donations obtained from 12 subjects were stored at −80° C. To prepare working stocks the fecal samples were transferred into the anaerobic chamber and allowed to thaw.

[2] = system: Actinobacteria and/or Coriobacteriaceae/Gordonibacter; assay: Ex vivo fecal slurry assay, 16S rRNA sequencing (Example 13)
Source text: as §1

[3] = system: Enterobacteriaceae/Escherichia/Shigella microbes; assay: Ex vivo fecal slurry assay, 16S rRNA sequencing (Example 17)
Source text: as §1

[4] = system: Ruminococcaceae/Ruminococcus microbes; assay: Ex vivo fecal slurry assay, 16S rRNA sequencing (Example 21)
Source text: as §1

[5] = system: Enterococcaceae/Enterococcus and/or Enterobacteriaceae/Escherichia/Shigella microbes; assay: Ex vivo fecal slurry assay, 16S rRNA sequencing (Example 18)
Source text: as §1

[6] = system: Firmicutes, Proteobacteria, and/or Actinobacteria; assay: Ex vivo fecal slurry assay, 16S rRNA sequencing (Example 11)
Source text: as §1

[7] = system: Enterobacteriales/Enterobacteriaceae microbes; assay: Ex vivo fecal slurry assay, 16S rRNA sequencing (Example 19)
Source text: as §1

Compound: OC[C@H]1O[C@@H](O[C@@H]2[C@@H](CO)OC(O)(CO)[C@H]2O)[C@H](O)[C@@H](O)[C@H]1O (mixture of isomers) [lactulose]
- levels Enterococcaceae/Enterococcus and/or Bifidobacteriaceae/Bifidobacterium [1]: increase
- levels of Actinobacteria and/or Coriobacteriaceae/Gordonibacter [2]: decrease
- levels of Enterobacteriaceae/Escherichia/Shigella microbes [3]: decrease
- levels of Ruminococcaceae/Ruminococcus microbes [4]: decrease
- levels of Enterococcaceae/Enterococcus and/or Enterobacteriaceae/Escherichia/Shigella microbes [5]: decrease
- levels of Firmicutes, Proteobacteria, and/or Actinobacteria [6]: decrease
- levels of Enterobacteriales/Enterobacteriaceae microbes [7]: decrease
